Laboratory results taken from ChEMBL document CHEMBL2424655, “Design, synthesis and biological evaluation of peptide derivatives of L-dopa as anti-parkinsonian agents” (2013).
Square brackets hold non-standard residues; d marks the D form. Peptide text beside a SMILES is read from it. * marks the point of attachment. Dopa = N[C@@H](Cc1ccc(O)c(O)c1)C(=O)O; αMeF = C[C@](N)(Cc1ccccc1)C(=O)O; Cha = N[C@@H](CC1CCCCC1)C(=O)O; Ac6c = NC1(C(=O)O)CCCCC1; Ac5c = NC1(C(=O)O)CCCC1; Aib = CC(C)(N)C(=O)O; OcHex = C1CCC(O*)CC1; OBn = c1ccc(CO*)cc1; OiPr = CC(C)O*

Tests used:
Format in all cases: functional
Rattus norvegicus [1] = assay: Antiparkinsonian activity in 6-hydroxydopamine lesioned Wistar rat assessed as duration of activity at 63.4 umol/kg, po measured every 10 mins for 240 mins relative to L-DOPA
Rattus norvegicus [2] = assay: Antiparkinsonian activity in 6-hydroxydopamine lesioned Wistar rat assessed as AUC activity by measuring contralateral rotations at 63.4 umol/kg, po measured every 10 mins for 240 mins relative to L-DOPA
Rattus norvegicus [3] = assay: Antiparkinsonian activity in 6-hydroxydopamine lesioned Wistar rat assessed as peak activity by measuring contralateral rotations at 63.4 umol/kg, po measured every 10 mins for 240 mins relative to L-DOPA
Rattus norvegicus [4] = assay: Antiparkinsonian activity in 6-hydroxydopamine lesioned Wistar rat assessed as peak activity by measuring contralateral rotations at 63.4 umol/kg, ip measured every 10 mins for 240 mins relative to L-DOPA
Rattus norvegicus [5] = assay: Antiparkinsonian activity in 6-hydroxydopamine lesioned Wistar rat assessed as AUC activity by measuring contralateral rotations at 63.4 umol/kg, ip measured every 10 mins for 240 mins relative to L-DOPA
Rattus norvegicus [6] = assay: Antiparkinsonian activity in 6-hydroxydopamine lesioned Wistar rat assessed as duration of activity at 63.4 umol/kg, ip measured every 10 mins for 240 mins relative to L-DOPA

CC(C)CCOC(=O)[C@H](Cc1ccc(O)c(O)c1)NC(=O)C(C)(C)N.Cl
Activity (Rattus norvegicus [1]): 49% | Activity (Rattus norvegicus [2]): 79% | Activity (Rattus norvegicus [3]): 59%

COC(=O)[C@H](Cc1ccc(OC(C)=O)c(OC(C)=O)c1)NC(=O)C(C)(C)N.Cl
Activity (Rattus norvegicus [1]): 73% | Activity (Rattus norvegicus [2]): 55% | Activity (Rattus norvegicus [3]): 69%

COC(=O)[C@H](Cc1ccc(OC(C)=O)c(OC(C)=O)c1)NC(=O)C1(N)CCCCC1.Cl
Activity (Rattus norvegicus [1]): 42% | Activity (Rattus norvegicus [2]): 42% | Activity (Rattus norvegicus [3]): 55%

COC(=O)[C@H](Cc1ccc(OC(C)=O)c(OC(C)=O)c1)NC(=O)C1(N)CCCC1.Cl
Activity (Rattus norvegicus [1]): 44% | Activity (Rattus norvegicus [2]): 39% | Activity (Rattus norvegicus [3]): 61%

COC(=O)[C@H](Cc1ccc(OC(C)=O)c(OC(C)=O)c1)NC(=O)[C@@H](N)CC1CCCCC1.Cl
Activity (Rattus norvegicus [4]): 51% | Activity (Rattus norvegicus [5]): 32% | Activity (Rattus norvegicus [6]): 27%

CC(=O)Oc1ccc(C[C@H](NC(=O)C(C)(C)N)C(=O)O)cc1OC(C)=O.Cl
Activity (Rattus norvegicus [1]): 45% | Activity (Rattus norvegicus [2]): 42% | Activity (Rattus norvegicus [3]): 66%

COC(=O)[C@H](Cc1ccc(O)c(O)c1)NC(=O)C1(N)CCCC1.Cl (H-[Ac5c]-[Dopa]-OMe)
Activity (Rattus norvegicus [1]): 97% | Activity (Rattus norvegicus [2]): 78% | Activity (Rattus norvegicus [3]): 105%

COC(=O)[C@H](Cc1ccc(O)c(O)c1)NC(=O)C1(N)CCCCC1.Cl (H-[Ac6c]-[Dopa]-OMe)
Activity (Rattus norvegicus [1]): 84% | Activity (Rattus norvegicus [2]): 88% | Activity (Rattus norvegicus [3]): 107%

CC(C)(N)C(=O)N[C@@H](Cc1ccc(O)c(O)c1)C(=O)OCc1ccccc1.Cl (H-[Aib]-[Dopa]-OBn)
Activity (Rattus norvegicus [1]): 38% | Activity (Rattus norvegicus [2]): 46% | Activity (Rattus norvegicus [3]): 71%

CC(C)(N)C(=O)N[C@@H](Cc1ccc(O)c(O)c1)C(=O)O.Cl (H-[Aib]-[Dopa]-OH)
Activity (Rattus norvegicus [1]): 57% | Activity (Rattus norvegicus [2]): 65% | Activity (Rattus norvegicus [3]): 80%

COC(=O)[C@H](Cc1ccc(O)c(O)c1)NC(=O)C(C)(C)N.Cl (H-[Aib]-[Dopa]-OMe)
Activity (Rattus norvegicus [4]): 77% | Activity (Rattus norvegicus [5]): 69% | Activity (Rattus norvegicus [6]): 63%

CC(C)(N)C(=O)N[C@@H](Cc1ccc(O)c(O)c1)C(=O)OC1CCCCC1.Cl (H-[Aib]-[Dopa]-OcHex)
Activity (Rattus norvegicus [1]): 70% | Activity (Rattus norvegicus [2]): 105% | Activity (Rattus norvegicus [3]): 82%

CC(C)OC(=O)[C@H](Cc1ccc(O)c(O)c1)NC(=O)C(C)(C)N.Cl (H-[Aib]-[Dopa]-OiPr)
Activity (Rattus norvegicus [1]): 72% | Activity (Rattus norvegicus [2]): 116% | Activity (Rattus norvegicus [3]): 149%

COC(=O)[C@H](Cc1ccc(O)c(O)c1)NC(=O)[C@@H](N)CC1CCCCC1.Cl (H-[Cha]-[Dopa]-OMe)
Activity (Rattus norvegicus [1]): 45% | Activity (Rattus norvegicus [2]): 40% | Activity (Rattus norvegicus [3]): 53%

C[C@](N)(Cc1ccccc1)C(=O)N[C@@H](Cc1ccc(O)c(O)c1)C(=O)O.Cl (H-[αMeF]-[Dopa]-OH)
Activity (Rattus norvegicus [1]): 40% | Activity (Rattus norvegicus [2]): 26% | Activity (Rattus norvegicus [3]): 37%
